Measurements from US7105527B2, “N4-acylcytosine nucleosides for treatment of viral infections” (priority 2001, dated 2006).
Read-outs that look alike come from different tables or passages of the source. Blank lines part the entries; values can stand above or below the molecule they belong to.

Tests used:
[1] = system: CEM (human lymphoblastoid) cells; assay: Cytotoxicity assay in CEM cells; format: cell-based
Method: (§1) The toxicity of the compounds was assessed in Vero, human PBM, CEM (human lymphoblastoid), MT-2, and HepG2 cells, as described previously (Schinazi […]., Cannon D. L., Xie […]., Smith […]. […] Cycloheximide was included as positive cytotoxic control, and untreated cells exposed to solvent were included as negative controls. The cytotoxicity IC50 was obtained from the concentration-response curve using the median effective method described previously (Chou […]. […] Belen'kii M. S. & Schinazi R. F.

[2] = system: human PBM cells; assay: Cytotoxicity assay in PBM cells; format: cell-based
Method: as §1

[3] = system: Vero cells; assay: Cytotoxicity assay in Vero cells; format: cell-based
Method: as §1

[4] = system: HepG2 cells; assay: Cytotoxicity assay in HepG2 cells; format: cell-based
Method: as §1

[5] = system: HIV-1LAl; assay: Anti-HIV (in PBM cells) assay, reverse transcriptase readout; format: cell-based
Method: Anti-HIV-1 activity of the compounds was determined in human peripheral blood mononuclear (PBM) cells as described previously (Schinazi […]., Cannon D., Mathis R., Lloyd R. M. Jr., […]., St. Clair M., Wilson J., Furman P. A., Painter G., Choi […]. Antimicrob. Agents Chemother. 1992, 36, 2423; Schinazi […]., Cannon D., Xie […]., Smith G., Hahn E. Antimicrob. Agents Chemother. 1990, 34, 1061). Stock solutions ([…]) of the compounds were prepared in sterile DMSO and then diluted to the desired concentration in growth medium. […] Virus obtained from the cell supernatant was quantified on day 6 after infection by a reverse transcriptase assay using (rA)n.(dT)12.18 as template-primer. […] AZT was included as positive control. The antiviral EC50 and EC90 were obtained from the concentration-response curve using the median effective method described previously (Chou […]. Enzyme Regul. 1984, 22, 27-55; Belen'kii M. S. & Schinazi R. F. Antiviral Res. 1994, 25, 1-11).

[6] = system: MT-2 cells; assay: Cytotoxicity assay in MT-2 cells; format: cell-based; conditions: Table 2, read-out: Cytotoxicity in different cells (IC50, μM) MT-2
Method: as §1

[7] = system: HIV-1RF; assay: Anti-HIV (in MT-2 cells) assay, viral RNA accumulation; format: cell-based
Method: In a second antiviral testing system, the potency of the compounds was determined by measurement of viral RNA accumulation in HIV-1RF infected MT-2 cells (Bacheler L T, Paul M, Otto M J, Jadhav P K, Stone B A & Miller J A (1994) An assay for HIV RNIn infected cell lysates, and its use for rapid evaluation of antiviral efficacy. Antivir. Chem. Chemother. 5:111–121). The virus titer was established to determine the dilution producing 15 to 30 ng/RNA per well of HIV RNIn 3 days of infection. HIV-1 RNA was quantified using biotinylated capture and alkaline phosphatase-derivatized reporter oligonucleotides as described previously (Charvet A-S, Camplo M, Faury P, Graciet J C, Mourier N, Chermann J C & Kraus J L (1994) Inhibition of human immunodeficiency virus type 1 replication by phosphonoformate- and phosphonoacetate-2′,3′-dideoxy-3′-thiacytidine conjugates. J. Med. Chem. 37:2216–2223). In a third system, the effect of analogs on the replication of HIV-1NL4-3 was determined via the InterCompany Consortium consensus p24 assay as previously described (Jadhav P K & MacKay M F (1997) Cyclic urea amide: HIV-1 protease inhibitors with low nanomolar potency against both wild types and protease inhibitor resistant mutants of HIV. J. Med. Chem. 40:181–190). Recombinant viruses were recovered by transfecting the appropriate NL4-3 plasmid by lipofection. Virus stocks recovered 7 to 10 days post-transfection were titered on MT-4 cells to determine if the dilution produced 1,000 to 3,000 ng p24 in 4 days. This dilution was then used in drug susceptibility assays, where drug was added 24 h post infection of cells, and p24 quantified by ELISA 3 days later.

[8] = Cytotoxicity assay in CEM cells; format: cell-based, human; conditions: human, CEM lymphoblastoid cells
Method: as §1

[9] = Cytotoxicity assay in MT-2 cells; format: cell-based; conditions: human
Method: as §1

[10] = Cytotoxicity assay in PBM cells; format: cell-based, human; conditions: human, human PBM cells
Method: as §1

[11] = Cytotoxicity assay in Vero cells; format: cell-based; conditions: African green monkey
Method: as §1

[12] = Cytotoxicity assay in HepG2 cells; format: cell-based; conditions: human
Method: as §1

[13] = Table 2, read-out: Cytotoxicity in different cells (IC50, μM) CEM
[14] = Table 2, read-out: Cytotoxicity in different cells (IC50, μM) PBM
[15] = Table 2, read-out: Cytotoxicity in different cells (IC50, μM) Vero
[16] = Table 2, read-out: Cytotoxicity in different cells (IC50, μM) HepG2
[17] = Table 2, read-out: Anti-HIV-1 activity in different cells (EC90, μM) PBM
[18] = Table 2, EC90, MT-2 cells, read-out: Anti-HIV-1 activity in different cells (EC90, μM) MT-2
[19] = Table 2, read-out: Cytotoxicity in different cells (IC50, μM) MT-2
[20] = Human immunodeficiency virus 1, PBMC, Table 2, read-out: Anti-HIV-1 activity in different cells (EC90, μM) PBM
[21] = Table 1, read-out: Cytotoxicity in different cells (IC50, μM) CEM
[22] = Table 1, read-out: Cytotoxicity in different cells (IC50, μM) MT-2
[23] = Table 1, read-out: Cytotoxicity in different cells (IC50, μM) PBM
[24] = Human immunodeficiency virus 1, MT2, Table 1, EC90, MT-2 cells, read-out: Anti-HIV-1 activity in different cells (EC90, μM) MT-2
[25] = Table 1, read-out: Cytotoxicity in different cells (IC50, μM) Vero
[26] = Table 1, read-out: Cytotoxicity in different cells (IC50, μM) HepG2
[27] = Human immunodeficiency virus 1, PBMC, Table 1, read-out: Anti-HIV-1 activity in different cells (EC90, μM) PBM
[28] = Human immunodeficiency virus 1, MT2, Table 2, EC90, MT-2 cells, read-out: Anti-HIV-1 activity in different cells (EC90, μM) MT-2
[29] = Table 1, read-out: Anti-HIV-1 activity in different cells (EC90, μM) PBM

- EC90 [5, 17]: 3.1 µM
Structure (SMILES): CCCCc1ccc(C(=O)Nc2nc(=O)n([C@H]3C=C[C@@H](CO)O3)cc2F)cc1 [Compound 52, β-D-N^4-(4-n-Butylbenzoyl)-2′,3′-didehydro-2,3′-dideoxy-5-fluoro-^4cytidine]
- IC50 [1, 13]: 8.5 µM
- IC50 [2, 14]: 7.3 µM
- IC50 [3, 15]: 29.4 µM
- IC50 [4, 16]: 5.1 µM

Structure (SMILES): COc1ccccc1C(=O)Nc1nc(=O)n([C@H]2C=C[C@@H](CO)O2)cc1F [Compound 44, β-D-N^4-o-Anisoyl-2,3′-didehydro-2,3-dideoxy-5-fluorocytidine]
- IC50 [1, 13]: 3.9 µM
- IC50 [6]: > 50 µM
- IC50 [2, 14]: 13.1 µM
- EC90 [7, 18]: > 50 µM
- IC50 [3, 15]: 5.6 µM
- IC50 [4, 16]: 3.4 µM
- EC90 [5, 17]: 14.6 µM

Structure (SMILES): Cc1cccc(C(=O)Nc2nc(=O)n([C@H]3C=C[C@@H](CO)O3)cc2F)c1 [Compound 49, β-D-2,3′-Didehydro-2,3′-dideoxy-5-fluoro-N^4-m-toluoylcytidine]
- IC50 [8, 13]: 34.9 µM
- IC50 [9, 19]: > 50 µM
- IC50 [10, 14]: 57.1 µM
- EC90 ([7]; Human immunodeficiency virus 1, MT2, read-out: Anti-HIV-1 activity in different cells (EC90, μM) MT-2): 0.8 µM
- IC50 [11, 15]: 149 µM
- IC50 [12, 16]: > 100 µM
- EC90 [5, 20]: 0.7 µM

Structure (SMILES): O=C(Nc1nc(=O)n([C@H]2CC[C@@H](CO)O2)cc1F)c1cccs1 [Compound 30, β-D-2′,3′-Dideoxy-5-fluoro-N^4-(2-thiophenecarbonyl)cytidine]
- IC50 [8, 21]: 13.7 µM
- IC50 [9, 22]: > 50 µM
- IC50 [10, 23]: 19.4 µM
- EC90 [7, 24]: 0.4 µM
- IC50 [11, 25]: 23.9 µM
- IC50 [12, 26]: 37.9 µM
- EC90 [5, 27]: 0.052 µM

Structure (SMILES): O=C(Nc1nc(=O)n([C@H]2C=C[C@@H](CO)O2)cc1F)c1cccc([N+](=O)[O-])c1 [Compound 46, β-D-2′,3′-Didehydro-2,3′-dideoxy-5-fluoro-N^4-(3-nitrobenzoyl)cytidine]
- IC50 [8, 13]: 54.5 µM
- IC50 [9, 19]: > 50 µM
- IC50 [10, 14]: 11.9 µM
- EC90 [7, 28]: 0.58 µM
- IC50 [11, 15]: > 100 µM
- IC50 [12, 16]: > 100 µM
- EC90 [5, 20]: 0.93 µM

Structure (SMILES): Cc1cccc(C(=O)Nc2nc(=O)n([C@H]3CC[C@@H](CO)O3)cc2F)c1 [Compound 23, β-D-2′,3′-Dideoxy-5-fluoro-N-m-toluoylcytidine]
- IC50 [8, 21]: > 100 µM
- IC50 [9, 22]: > 50 µM
- IC50 [10, 23]: 8.4 µM
- EC90 [7, 24]: 0.24 µM
- IC50 [11, 25]: 61.1 µM
- IC50 [12, 26]: > 100 µM
- EC90 [5, 27]: 0.012 µM

Structure (SMILES): Cc1ccc(C(=O)Nc2nc(=O)n([C@H]3C=C[C@@H](CO)O3)cc2F)cc1 [Compound 48, β-D-2′,3′-Didehydro-2′,3′-dideoxy-5-fluoro-N^4-p-toluoylcytidine]
- IC50 [8, 13]: 31.9 µM
- IC50 [9, 19]: > 50 µM
- IC50 [10, 14]: 13.2 µM
- EC90 [7, 28]: 0.21 µM
- IC50 [11, 15]: > 100 µM
- IC50 [12, 16]: > 100 µM
- EC90 [5, 20]: 0.32 µM

Structure (SMILES): COc1ccc(C(=O)Nc2nc(=O)n([C@H]3C=C[C@@H](CO)O3)cc2F)cc1 [Compound 42, β-D-N^4-p-Anisoyl-2′,3′-didehydro-2′,3′dideoxy-5-fluorocytidine]
- IC50 [9, 19]: > 50 µM
- IC50 [10, 14]: > 100 µM
- EC90 [7, 28]: 0.58 µM
- IC50 [12, 16]: > 100 µM
- EC90 [5, 20]: 0.7 µM

Structure (SMILES): CCCCCCC(=O)Nc1nc(=O)n(C2C=CC(CO)O2)cc1F [Compound 59, β-D-2′,3′-Didehydro-2′,3′-dideoxy-5-fluoro-N^4-heptanoylcytidine]
- IC50 [6]: 6.2 µM
- EC90 [7, 18]: 0.23 µM

Structure (SMILES): O=C(Nc1nc(=O)n([C@H]2C=C[C@@H](CO)O2)cc1F)C1CCCC1 [Compound 57, β-D-N^4-(Cyclopentanecarbonyl)-2′,3′-didehydro-2′,3′-dideoxy-5-fluorocytidine]
- IC50 [8, 13]: 19.6 µM
- IC50 [9, 19]: > 50 µM
- IC50 [10, 14]: 52.9 µM
- EC90 [7, 28]: 0.51 µM
- IC50 [11, 15]: 87.6 µM
- IC50 [12, 16]: > 100 µM
- EC90 [5, 20]: 0.4 µM

Structure (SMILES): CC(C)(C)c1ccc(C(=O)Nc2nc(=O)n([C@H]3CC[C@@H](CO)O3)cc2F)cc1 [Compound 28, β-D-N^4-(4-tert-Butylbenzoyl)-2,3′-dideoxy-5-fluorocytidine]
- IC50 [1, 21]: 6 µM
- IC50 [2, 23]: 12.5 µM
- EC90 ([7]; Table 1, EC90, MT-2 cells, read-out: Anti-HIV-1 activity in different cells (EC90, μM) MT-2): 0.6 µM
- IC50 [3, 25]: 25.9 µM
- IC50 [4, 26]: 21.3 µM
- EC90 [5, 29]: 0.088 µM

- EC90 [5, 29]: 0.31 µM
Structure (SMILES): CCCCc1ccc(C(=O)Nc2nc(=O)n([C@H]3CC[C@@H](CO)O3)cc2F)cc1 [Compound 27, β-D-N^4-(4-n-Butylbenzoyl)-2,3′-dideoxy-5-fluorocytidine]
- IC50 [1, 21]: 1.3 µM
- IC50 [2, 23]: 1.1 µM
- IC50 [3, 25]: 3.2 µM
- IC50 [4, 26]: 1.9 µM

Structure (SMILES): O=C(Nc1nc(=O)n([C@H]2CC[C@@H](CO)O2)cc1F)c1cc2ccccc2s1 [Compound 32, β-D-2′,3′-Dideoxy-5-fluoro-N^4-(benzo[b]thiophene-2-carbonyl)cytidine]
- IC50 [8, 21]: 4.5 µM
- IC50 [9, 22]: > 50 µM
- IC50 [10, 23]: 23.5 µM
- EC90 [7, 24]: 0.3 µM
- IC50 [11, 25]: 39.6 µM
- IC50 [12, 26]: 1.3 µM
- EC90 [5, 27]: 0.19 µM

Structure (SMILES): O=C(Nc1nc(=O)n([C@H]2C=C[C@@H](CO)O2)cc1F)C1CCCCC1 [Compound 58, β-D-N-(Cyclohexanecarbonyl)-2′ 3′-didehydro-2′,3′-dideoxy-5-fluorocytidine]
- IC50 [8, 13]: 11.2 µM
- IC50 [9, 19]: > 50 µM
- IC50 [10, 14]: 11.7 µM
- EC90 [7, 28]: 0.38 µM
- IC50 [11, 15]: > 100 µM
- IC50 [12, 16]: > 100 µM
- EC90 [5, 20]: 0.6 µM

Structure (SMILES): O=C(Nc1nc(=O)n([C@H]2CC[C@@H](CO)O2)cc1F)C1CCCCC1 [Compound 33, β-D-N^4-(Cyclohexanecarbonyl)-2′,3′-dideoxy-5-fluorocytidine]
- IC50 [8, 21]: 6.4 µM
- IC50 [9, 22]: 50 µM
- IC50 [10, 23]: 4.5 µM
- EC90 [7, 24]: 0.3 µM
- IC50 [11, 25]: 11.8 µM
- IC50 [12, 26]: 6.5 µM
- EC90 [5, 27]: 0.086 µM
